Consider 7 compounds from patent US8969629B2, “Cyclic compound, production process thereof, radiation-sensitive composition and resist pattern formation method” (Mitsubishi Gas Chemical Company, Inc., priority 2009, dated 2015).

SMILES strings stand for the structures.

A short description of the data set: Solubility test of compound in safe solvent. It counts as physicochemical. The settings on record: for dissolution amount in CHN: cyclohexanone (CHN); for dissolution amount in PGME: propylene glycol monomethyl ether (PGME). The source says: A: 5.0 wt %≦dissolution amount
B: 3.0 wt %≦dissolution amount<5.0 wt %
C: dissolution amount<3.0 wt %

`Cc1cc(C2c3cc(c(OC4CCC(C)CC4)cc3O)C(c3ccc(O)c(O)c3)c3cc(c(O)cc3OC3CCC(C)CC3)C(c3ccc(O)c(O)c3)c3cc(c(OC4CCC(C)CC4)cc3O)C(c3ccc(O)c(O)c3)c3cc2c(O)cc3OC2CCC(C)CC2)ccc1O` (centres unmarked) [CR-4A]: the “dissolution amount in CHN” value was “A (5.0 wt %≦dissolution amount)” and the “dissolution amount in PGME” value was “A (5.0 wt %≦dissolution amount)”.
Regarding `Oc1ccc(C2c3cc(c(OC4CCCCC4)cc3O)C(c3ccc(O)c(O)c3)c3cc(c(O)cc3OC3CCCCC3)C(c3ccc(O)c(O)c3)c3cc(c(OC4CCCCC4)cc3O)C(c3ccc(O)c(O)c3)c3cc2c(O)cc3OC2CCCCC2)cc1O` (centres unmarked) [CR-2A], the “dissolution amount in CHN” value is “A (5.0 wt %≦dissolution amount)” and the “dissolution amount in PGME” value is listed as “A (5.0 wt %≦dissolution amount)”.
As for `Oc1ccc(C2c3cc(c(OC4CCCCC4)cc3O)C(c3ccc(O)cc3)c3cc(c(O)cc3OC3CCCCC3)C(c3ccc(O)cc3)c3cc(c(OC4CCCCC4)cc3O)C(c3ccc(O)cc3)c3cc2c(O)cc3OC2CCCCC2)cc1` (centres unmarked) [CR-1A], the “dissolution amount in CHN” value was “A (5.0 wt %≦dissolution amount)” and the “dissolution amount in PGME” value is “A (5.0 wt %≦dissolution amount)”.
For `CCOc1cc(O)c2cc1C(c1ccc(OC)cc1)c1cc(c(O)cc1OCC)C(c1ccc(OC)cc1)c1cc(c(OCC)cc1O)C(c1ccc(OC)cc1)c1cc(c(O)cc1OCC)C2c1ccc(OC)cc1` (centres unmarked) [CR-9A, reference compound], the “dissolution amount in CHN” value was “C (dissolution amount<3.0 wt %)” and the “dissolution amount in PGME” value was “C (dissolution amount<3.0 wt %)”.
Take `CC1CC(Oc2cc(O)c3cc2C(c2ccc(O)c(O)c2)c2cc(c(O)cc2OC2CC(C)CC(C)(C)C2)C(c2ccc(O)c(O)c2)c2cc(c(OC4CC(C)CC(C)(C)C4)cc2O)C(c2ccc(O)c(O)c2)c2cc(c(O)cc2OC2CC(C)CC(C)(C)C2)C3c2ccc(O)c(O)c2)CC(C)(C)C1` (centres unmarked) [CR-7A]: the “dissolution amount in CHN” value is listed as “A (5.0 wt %≦dissolution amount)” and the “dissolution amount in PGME” value was “A (5.0 wt %≦dissolution amount)”.
In the case of `CC1CCC(Oc2cc(O)c3cc2C(c2ccc(O)cc2)c2cc(c(O)cc2OC2CCC(C)CC2)C(c2ccc(O)cc2)c2cc(c(OC4CCC(C)CC4)cc2O)C(c2ccc(O)cc2)c2cc(c(O)cc2OC2CCC(C)CC2)C3c2ccc(O)cc2)CC1` (centres unmarked) [CR-3A], the “dissolution amount in CHN” value is listed as “A (5.0 wt %≦dissolution amount)” and the “dissolution amount in PGME” value is given as “A (5.0 wt %≦dissolution amount)”.
As to `COc1cc(O)c2cc1C(c1ccc(C)cc1C)c1cc(c(O)cc1OC)C(c1ccc(C)cc1C)c1cc(c(OC)cc1O)C(c1ccc(C)cc1C)c1cc(c(O)cc1OC)C2c1ccc(C)cc1C` (centres unmarked) [CR-8A, reference compound], the “dissolution amount in CHN” value was “C (dissolution amount<3.0 wt %)” and the “dissolution amount in PGME” value is reported as “C (dissolution amount<3.0 wt %)”.
